This is an account of results in patent publication US11484543B2, “Compositions and methods for diagnosing and treating diseases and disorders associated with mutant KCNJ5” (The Rockefeller University, priority 2017, dated 2022).

For series [1] the following is noted: in vivo; cited from earlier work.
Series [2] deals with T1, KCNJ3/KCNJ5^WT (Homo sapiens, UniProt P48544).
T1 construct: GFP; expressed in transfected cells; host or cells: HEK293T (American Type Culture Collection), transient co-transfection
T1 sequence (P48544 1-419): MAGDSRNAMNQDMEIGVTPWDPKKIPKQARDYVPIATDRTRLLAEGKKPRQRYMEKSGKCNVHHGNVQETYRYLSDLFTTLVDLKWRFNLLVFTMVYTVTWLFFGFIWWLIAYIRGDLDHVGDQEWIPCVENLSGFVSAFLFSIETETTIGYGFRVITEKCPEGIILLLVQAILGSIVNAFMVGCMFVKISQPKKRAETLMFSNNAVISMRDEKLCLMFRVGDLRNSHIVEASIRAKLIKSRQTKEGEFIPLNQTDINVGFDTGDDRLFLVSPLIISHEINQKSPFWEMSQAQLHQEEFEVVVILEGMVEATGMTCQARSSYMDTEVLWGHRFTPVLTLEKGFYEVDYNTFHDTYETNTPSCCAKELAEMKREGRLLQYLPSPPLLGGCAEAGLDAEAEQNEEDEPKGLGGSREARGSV
T1 sequence (P48549 1-501 partner): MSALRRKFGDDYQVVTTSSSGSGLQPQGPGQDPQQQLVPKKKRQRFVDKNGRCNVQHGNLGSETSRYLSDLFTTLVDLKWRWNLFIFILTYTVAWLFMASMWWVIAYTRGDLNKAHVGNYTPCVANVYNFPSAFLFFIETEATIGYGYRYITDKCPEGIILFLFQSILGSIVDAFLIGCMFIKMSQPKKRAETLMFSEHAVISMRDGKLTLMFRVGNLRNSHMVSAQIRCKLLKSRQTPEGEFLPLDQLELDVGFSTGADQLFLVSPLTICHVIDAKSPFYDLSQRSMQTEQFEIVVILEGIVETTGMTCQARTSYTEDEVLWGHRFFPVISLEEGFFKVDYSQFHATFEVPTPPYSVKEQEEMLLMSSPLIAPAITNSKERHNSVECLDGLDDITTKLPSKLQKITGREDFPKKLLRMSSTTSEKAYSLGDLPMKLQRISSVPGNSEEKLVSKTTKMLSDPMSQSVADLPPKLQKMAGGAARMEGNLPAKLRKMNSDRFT
In words: Perforated whole-cell patch clamp, KCNJ3/KCNJ5^WT heterotetramers in HEK293T cells. The class given is cell-based. The note with it: 1 mM BaCl2. As for the experimental part:
(§1) HEK293T cells (American Type Culture Collection) were used for transient expression of GFP-tagged KCNJ5 or KCNJ3. The cells were grown in Dulbecco's modified Eagle medium (DMEM; Invitrogen) supplemented with 10% FBS (Invitrogen) in 5% CO2 and 95% air at 37° C. Cells were grown to 50-70% confluence for transfection, and the corresponding cDNAs (Choi et al., 2011, Science 331:768-772) were simultaneously applied to the cells using TurboFect transfection reagent according to the manufacturer's protocol (Fermentas). […]
(§2) Within 24 hr after transfection, the cells were treated with trypsin-containing medium (TrypLE Express) (Gibco) for 10 minutes to detach the cells. […] Fluorescence signal (an indication of positive transfection) was detected with an intensified video imaging system including a SIT 68 camera (Long Island Industries). […] After forming a high resistance seal (>2 GΩ), the membrane capacitance was monitored until the whole-cell patch configuration was formed. The cell membrane capacitance was measured and compensated. The K/cation currents were measured from −80 mV to 20 mV with 20 mV steps by an Axon 200A patch-clamp amplifier. The currents were low-pass filtered at 1 KHz and digitized by an Axon interface (Digidata 1200) and were analyzed using the pClamp software system 9 (Axon). […]

The target of series [3] is T2, KCNJ3/KCNJ5^L168R (Homo sapiens, UniProt P48544, L168R).
T2 construct: GFP; expressed in transfected cells; host or cells: HEK293T (American Type Culture Collection), transient co-transfection
T2 sequence (P48544 1-419 L168R): T1 sequence (P48544 1-419) with L168R
T2 sequence (P48549 1-501 partner): T1 sequence (P48549 1-501 partner)
In words: Perforated whole-cell patch clamp, KCNJ3/KCNJ5^L168R heterotetramers in HEK293T cells. Type of series: cell-based. The note with it: 1 mM BaCl2, after 20 μM roxithromycin. As for the experimental part:
as §1, §2

Positions count from the first letter of the chain named.

Take `C[C@]12CCC(=O)C=C1CC[C@@H]1[C@@H]2[C@@H](O)C[C@]2(C=O)[C@@H](C(=O)CO)CC[C@@H]12` [aldosterone]: the plasma half-life in series [1] was ~30 min. Consider `[Ba+2].[Cl-].[Cl-]` [barium, BaCl2], for which the “barium sensitivity of KCNJ3/KCNJ5^WT currents” value in series [2] is given as “sensitive”. Besides, in series [3], the “block of remaining KCNJ3/KCNJ5^L168R current” value is listed as “blocked”.
